US10752593B2, “Compounds for use as therapeutically active substances in the treatment of retinal diseases” (ENDOGENA THERAPEUTICS, INC., priority 2018, dated 2020)

Tested on: retinal precursor cells
Test: Sphere passaging and high-throughput drug screening: proliferation of retinal precursor cells within one week
Type: cell-based, mammalian
Details: for increase of cell proliferation within one week: increase over control, retinal precursor cells; for Cell proliferation within one week [%]: retinal precursor cells grown one week with compound in 0.1% DMSO, control without compound = 100
Procedure: Kynurenic Acid (0.2 mg/mL), trypsin (1.33 mg/mL), and hyaluronidase (0.67 mg/mL) were weighed out and dissolved in high magnesium/low calcium artificial cerebral spinal fluid (aCSF) at 37° C. Fibroblast growth factor 2 (FGF2; 10 ng/mL) and heparin (2 μg/mL) were added to 100 mL of serum-free media (SFM). Ovomucoid trypsin inhibitor (1 mg/mL) was dissolved in warm SFM and sterile filtered ([…]).
A dissecting microscope, cold light source, and sterile surgical instruments were set up inside of a sterile biological safety cabinet (BSC). Mammalian eyes were enucleated and placed in a petri dish containing cold, sterile aCSF. Under the dissecting microscope, hair, connective tissue, and the dorsal and ventral oblique muscles were cleared from the scleral/corneal border with two sets of forceps. Next, curved or angled micro-dissecting scissors were used to cleave any remaining extraocular muscle tissue, the optic nerve, and cut the eyeball into symmetrical halves; beginning and finishing the cut from the hole left by the optic nerve. Using two sets of forceps to grasp the cornea, the two eye halves were peeled apart. The lens, optic nerve, and vitreous were separated from the eye shells and the eye shells were transferred into a new petri dish (also containing cold, sterile aCSF). To isolate the ciliary epithelium (CE), eye shells were oriented with the cornea on the right and retinal pigmented epithelium (RPE) on the left. A pair of straight forceps were used to pin down the eye shell on the RPE side while a scalpel blade was inserted between the CE and the iris, using pressure to slice the iris/cornea side off from the rest of the shell. Next, the scalpel was run along the border between the CE and the RPE to obtain the CE isolated as a thin strip of tissue. The CE strips were then transferred to a 35 mm dish containing 2 mL of dispase solution (Sigma; T1005) and incubated for 10 minutes at 37° C. Next, the strips were transferred from dispase into a 35 mm dish containing 2 mL of sterile filtered kynurenic acid, trypsin and hyaluronidase solution and incubated at 37° C. for 10 minutes. After incubation, the dish was returned to the dissecting scope, and the CE strips were pinned down with straight, non-serrated forceps, while non-serrated curved forceps were used to scrape the CE off from the underlying sclera. The bare scleral strips were then discarded, such that only the CE cells remained in the enzyme solution. Using a fire-polished, cotton-plugged glass pipette, the cells and enzyme solution were transferred to a 15 mL tube and triturated approximately 45 times to break apart the tissue. The 15 mL tube/cell suspension was centrifuged for 5 minutes at 1500 rpm. The supernatant was gently aspirated from the resulting pellet using a fire-polished, cotton-plugged glass pipette and 2 mL of trypsin inhibitor solution was added to the pellet. Using a small borehole, fire-polished, cotton-plugged glass pipette, the sample was triturated approximately 45 times until it was a single-cell suspension. The 15 mL tube/cell suspension was centrifuged for 5 minutes at 1500 rpm. The supernatant was gently aspirated from the resulting pellet and 1-2 mL of SFM with FGF2 and heparin (plating media) was added. The cells and media were mixed to ensure a uniform cell suspension and a 10 uL sample was taken and cell density was determined. The cells were then seeded and cultured at 10c/μL in culture-treated plates or flasks. After one week, roughly 1 in 500 cells proliferated to form free-floating, clonal spheres greater than 80 μm in diameter.
Human-derived spheres were passaged using the kynurenic acid, trypsin, hyaluronidase enzyme solution with the addition of collagenase I (0.5 mg/mL), collagenase II (0.5 mg/mL) and elastase (0.1 mg/mL). Mouse-derived spheres were passaged using hyaluronidase (0.67 mg/mL), collagenase I (0.5 mg/mL), and collagenase II (0.5 mg/mL) dissolved in Accustase solution (Sigma; SCR005). […]

[1] = results table after the methods

| Structure (SMILES) | increase of cell proliferation within one week | Cell proliferation within one week [%] [1] | Cell proliferation within one week [%] (concentration not given) |
| --- | --- | --- | --- |
| O=C(Cc1ccccc1C(F)(F)F)Nc1ccc(-c2cnco2)c(Cl)c1 [Compound E0147, N-(3-chloro-4-(oxazol-5-yl)phenyl)-2-(2-(trifluoromethyl)phenyl)acetamide] | 42% | 142% | 142% |
| COc1cccc(CC(=O)Nc2ccc(-c3ccncc3)cc2)c1 [Compound E1078, 2-(3-methoxyphenyl)-N-(4-(pyridin-4-yl)phenyl)acetamide] |  | 136% |  |
| O=C(Cc1ccc(F)cc1F)Nc1ccc(-c2cnco2)c(F)c1 [Compound E1045, 2-(2,4-difluorophenyl)-N-(3-fluoro-4-(oxazol-5-yl)phenyl)acetamide] |  | 140% | 140% |
| O=C(Cc1cccc(Br)c1)Nc1ccc(-c2cnco2)c(Cl)c1 [Compound E0148, 2-(3-bromophenyl)-N-(3-chloro-4-(oxazol-5-yl)phenyl)acetamide] | 43% | 143% | 143% |
| COc1cc(NC(=O)Cc2cc(F)ccc2Cl)ccc1-c1ccncc1 [Compound E1062, 2-(2-chloro-5-fluorophenyl)-N-(3-methoxy-4-(pyridin-4-yl)phenyl)acetamide] |  | 134% |  |
| COc1cc(NC(=O)Cc2cccc(OC(F)F)c2)ccc1-c1ccncc1 [Compound E1066, 2-(3-(difluoromethoxy)phenyl)-N-(3-methoxy-4-(pyridin-4-yl)phenyl)acetamide] |  | 108% |  |
| O=C(Cc1cccc(OC(F)F)c1)Nc1ccc(-c2cnco2)c(Cl)c1 [Compound E1026, N-(3-chloro-4-(oxazol-5-yl)phenyl)-2-(3-(difluoromethoxy)phenyl)acetamide] |  | 122% | 122% |
| O=C(Cc1ccccc1C(F)(F)F)Nc1ccc(-c2cnco2)c(F)c1 [Compound E1051, N-(3-fluoro-4-(oxazol-5-yl)phenyl)-2-(2-(trifluoromethyl)phenyl)acetamide] |  | 118% | 118% |
| O=C(Cc1ccccc1Cl)Nc1ccc(-c2ccncc2)cc1 [Compound E1060, 2-(2-chlorophenyl)-N-(4-(pyridin-4-yl)phenyl)acetamide] | 44% | 144% |  |
| COc1cc(NC(=O)Cc2ccccc2OC(F)F)ccc1-c1ccncc1 [Compound E1073] |  | 121% |  |
| O=C(Cc1ccccc1OC(F)F)Nc1ccc(-c2cnco2)c(Cl)c1 [Compound E1020, N-(3-chloro-4-(oxazol-5-yl)phenyl)-2-(2-(difluoromethoxy)phenyl)acetamide] |  | 135% | 135% |
| O=C(Cc1cccc(C(F)(F)F)c1)Nc1ccc(-c2cnco2)c(Cl)c1 [Compound E1018, N-(3-chloro-4-(oxazol-5-yl)phenyl)-2-(3-(trifluoromethyl)phenyl)acetamide] |  | 134% | 134% |
| O=C(Cc1cc(F)ccc1Cl)Nc1ccc(-c2cnco2)c(F)c1 [Compound E1030, 2-(2-chloro-5-fluorophenyl)-N-(3-fluoro-4-(oxazol-5-yl)phenyl)acetamide] |  | 133% | 133% |
| COc1cc(NC(=O)Cc2ccccc2)ccc1-c1ccncc1 [Compound E1063, N-(3-methoxy-4-(pyridin-4-yl)phenyl)-2-phenylacetamide] |  | 130% |  |
| COc1ccccc1CC(=O)Nc1ccc(-c2ccncc2)c(OC)c1 [Compound E1068, N-(3-methoxy-4-(pyridin-4-yl)phenyl)-2-(2-methoxyphenyl)acetamide] |  | 108% |  |
| COc1cc(NC(=O)Cc2ccc(F)cc2F)ccc1-c1ccncc1 [Compound E1069, 2-(2,4-difluorophenyl)-N-(3-methoxy-4-(pyridin-4-yl)phenyl) acetamide] |  | 106% |  |
| COc1ccccc1CC(=O)Nc1ccc(-c2cnco2)c(Cl)c1 [Compound E1024, N-(3-chloro-4-(oxazol-5-yl)phenyl)-2-(2-methoxyphenyl)acetamide] |  | 128% | 128% |
| O=C(Cc1cccc(C(F)(F)F)c1)Nc1ccc(-c2cnco2)c(F)c1 [Compound E1048, N-(3-fluoro-4-(oxazol-5-yl)phenyl)-2-(3-(trifluoromethyl)phenyl)acetamide] |  | 105% | 105% |
| COc1cccc(CC(=O)Nc2ccc(-c3cnco3)c(Cl)c2)c1 [Compound E0146, N-(3-chloro-4-(oxazol-5-yl)phenyl)-2-(3-methoxyphenyl)acetamide] | 103% | 203% | 203% |
| COc1cccc(CC(=O)Nc2ccc(-c3ccncc3)c(OC)c2)c1 [Compound E1072, N-(3-methoxy-4-(pyridin-4-yl)phenyl)-2-(3-methoxyphenyl)acetamide] | 40% | 140% |  |
| O=C(Cc1ccc(F)cc1F)Nc1ccc(-c2cnco2)c(Cl)c1 [Compound E0149, N-(3-chloro-4-(oxazol-5-yl)phenyl)-2-(2,4-difluorophenyl)acetamide] | 57% | 157% | 157% |
| O=C(Cc1ccc(Cl)cc1)Nc1ccc(-c2cnco2)c(F)c1 [Compound E1039, 2-(4-chlorophenyl)-N-(3-fluoro-4-(oxazol-5-yl)phenyl)acetamide] |  | 107% | 107% |
| O=C(Cc1ccccc1)Nc1ccc(-c2cnco2)c(Cl)c1 [Compound E1021, N-(3-chloro-4-(oxazol-5-yl)phenyl)-2-phenylacetamide] | 49% | 149% | 149% |
| O=C(Cc1cccc(OC(F)F)c1)Nc1ccc(-c2cnco2)c(F)c1 [Compound E1027, 2-(3-(difluoromethoxy)phenyl)-N-(3-fluoro-4-(oxazol-5-yl)phenyl)acetamide] |  | 120% | 120% |
| COc1cccc(CC(=O)Nc2ccc(-c3cnco3)c(F)c2)c1 [Compound E1042, N-(3-fluoro-4-(oxazol-5-yl)phenyl)-2-(3-methoxyphenyl)acetamide] |  | 127% | 127% |
| O=C(Cc1ccccc1Cl)Nc1ccc(-c2cnco2)c(Cl)c1 [Compound E1022, N-(3-chloro-4-(oxazol-5-yl)phenyl)-2-(2-chlorophenyl)acetamide] | 58% | 158% | 158% |
| COc1cc(NC(=O)Cc2ccccc2Cl)ccc1-c1ccncc1 [Compound E0027, 2-(2-chlorophenyl)-N-(3-methoxy-4-(pyridin-4-yl)phenyl)acetamide] | 48% | 148% |  |
| O=C(Cc1ccccc1OC(F)F)Nc1ccc(-c2cnco2)c(F)c1 [Compound E1028, 2-(2-(difluoromethoxy)phenyl)-N-(3-fluoro-4-(oxazol-5-yl)phenyl)acetamide] |  | 119% | 119% |
| COc1ccccc1CC(=O)Nc1ccc(-c2cnco2)c(F)c1 [Compound E1025, N-(3-fluoro-4-(oxazol-5-yl)phenyl)-2-(2-methoxyphenyl)acetamide] |  | 106% | 106% |
